SMILES strings stand for the structures.

Usually IC50 stands for the concentration that gives 50% inhibition.

This assay concerns the target T1, Amine oxidase [flavin-containing] B (Homo sapiens, UniProt P27338).
T1 sequence (P27338 whole entry): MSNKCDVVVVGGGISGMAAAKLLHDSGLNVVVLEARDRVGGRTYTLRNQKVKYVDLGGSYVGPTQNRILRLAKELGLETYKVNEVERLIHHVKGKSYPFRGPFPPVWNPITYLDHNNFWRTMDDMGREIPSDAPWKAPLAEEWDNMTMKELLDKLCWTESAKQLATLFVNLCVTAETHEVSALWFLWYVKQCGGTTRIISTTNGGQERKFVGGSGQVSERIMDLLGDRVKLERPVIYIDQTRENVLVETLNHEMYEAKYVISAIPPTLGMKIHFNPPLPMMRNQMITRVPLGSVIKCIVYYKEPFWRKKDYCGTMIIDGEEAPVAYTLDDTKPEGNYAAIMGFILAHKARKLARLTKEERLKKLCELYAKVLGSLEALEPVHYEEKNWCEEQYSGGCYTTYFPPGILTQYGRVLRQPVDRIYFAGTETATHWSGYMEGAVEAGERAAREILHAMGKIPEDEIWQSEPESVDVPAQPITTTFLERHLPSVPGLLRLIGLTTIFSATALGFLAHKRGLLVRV
The experiment in a line: Inhibition of human MAO-B using p-tyramine as substrate preincubated for 15 mins followed by substrate addition and measured after 30 mins by Amplex Red reagent based fluorescence analysis.

Regarding `C#CCOc1ccccc1-c1cc(-c2ccc(Cl)cc2)nc(-c2ccccc2)n1`, the half-maximal inhibitory concentration (IC50) was found to be 480 nM. In other words, the sub-micromolar range.

These data come from ChEMBL document CHEMBL5584327, “Phenylstyrylpyrimidine derivatives as potential multipotent therapeutics for Alzheimer's disease” (RSC Med Chem, 2024).
